Source: PubChem BioAssay AID651976 (The Scripps Research Institute Molecular Screening Center, 2013)
Active and inactive are the calls of the source. How the calls were made is not given here.

Target: Nuclear receptor subfamily 5 group A member 2 (Homo sapiens) (UniProt O00482)
Test: concentration-dependent NR5A2 reporter suppression – cell-based, luminescence, late stage, dose response (AID 651976)
Conditions: cell-based LRH-1 luciferase reporter, inverse agonist

Nuclear receptor subfamily 5 group A member 2 (Homo sapiens), sequence (O00482 whole entry, looked up): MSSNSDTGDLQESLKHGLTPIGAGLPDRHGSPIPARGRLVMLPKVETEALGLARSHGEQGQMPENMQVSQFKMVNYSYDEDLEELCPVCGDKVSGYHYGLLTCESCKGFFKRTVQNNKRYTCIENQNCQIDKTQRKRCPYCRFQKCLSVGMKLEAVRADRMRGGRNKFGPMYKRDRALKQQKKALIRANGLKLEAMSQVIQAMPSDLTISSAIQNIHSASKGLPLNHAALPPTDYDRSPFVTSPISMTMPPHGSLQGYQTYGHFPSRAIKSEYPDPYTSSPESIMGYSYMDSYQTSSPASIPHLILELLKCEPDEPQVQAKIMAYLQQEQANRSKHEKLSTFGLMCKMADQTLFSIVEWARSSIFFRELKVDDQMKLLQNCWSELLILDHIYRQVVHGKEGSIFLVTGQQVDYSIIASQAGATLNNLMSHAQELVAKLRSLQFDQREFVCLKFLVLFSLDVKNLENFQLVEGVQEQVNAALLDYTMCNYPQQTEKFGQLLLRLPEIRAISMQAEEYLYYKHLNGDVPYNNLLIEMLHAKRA

Structure (SMILES)	IC50
CC(=O)Nc1ncc(Cc2cc(Cl)ccc2Cl)s1	8.57 µM
COC(=O)c1ccc(CNC(=O)COC(=O)c2cc(Cl)nc(Cl)c2)cc1	3.04 µM
CCOc1ccc(NC(=O)CSc2nccn(-c3ccc4c(c3)OCCO4)c2=O)cc1	0.673 µM
CCOc1ccc(OCCN2C(=O)NC(Cc3c[nH]c4ccccc34)C2=O)cc1 (stereo not drawn)	> 35.9 µM (inactive)
CC(=O)c1ccc(NC(=O)C(C)O/N=C(\N)c2ccccc2)cc1 (stereo not drawn)	7.64 µM
CCc1c(C)nc(SCC(=O)Nc2ccc3c(c2)OCCO3)[nH]c1=O	7.54 µM
O=C(COC(=O)c1ccc(=O)n(Cc2ccccc2)n1)Nc1ccc2c(c1)OCCO2	> 35.9 µM (inactive)
COc1ccc(CCNC(=O)COC(=O)Cc2ccccc2[N+](=O)[O-])cc1	> 35.9 µM (inactive)
COC(=O)c1ccc(NC(=O)CN2CCN(c3ccc(Cl)cc3)CC2)cc1	> 35.9 µM (inactive)
COc1ccc(-n2c(N)c(C(=O)NCc3cccnc3)sc2=S)cc1	> 35.9 µM (inactive)
COc1ccc(NC(=O)CSc2nc(N)c(-c3ccccc3)c(=O)[nH]2)cc1	1.64 µM
COc1ccc(NC(=O)COC(=O)c2c(-c3ccccc3)noc2C)cc1	0.677 µM
COCCn1c(C)cc(/C=C(\C#N)C(=O)OCC(=O)Nc2ccc(S(N)(=O)=O)cc2)c1C	> 35.9 µM (inactive)
Cc1cc(=O)oc2c(C)c(OCC(=O)NC3CC(C)(C)NC(C)(C)C3)ccc12	> 35.9 µM (inactive)
COc1ccc(CCNC(=O)CSc2ccc(NC(C)=O)cc2)cc1OC	5.44 µM
Cc1cccc(NC(=O)COC(=O)CN2C(=O)c3ccccc3C2=O)c1C	> 35.9 µM (inactive)
COc1ccc(C2(C)NC(=O)N(CC(=O)NCCC3=CCCCC3)C2=O)cc1OC (stereo not drawn)	> 35.9 µM (inactive)
CCOc1ccc(NC(=O)CSc2nncc(=O)n2N)cc1	> 12 µM (inactive)
CCOc1ccc(NC(=O)CSc2nnc(C(C)C)n2CC)cc1	> 12 µM (inactive)
CCc1cc(=O)[nH]c(SCC(=O)Nc2ccc3c(c2)OCCO3)n1	> 35.9 µM (inactive)
Cc1ccc(NC(=O)CSc2nc3[nH]c(=O)cc(O)c3s2)c(Br)c1	inactive
O=C(COc1ccc2c3c(c(=O)oc2c1)CCCC3)NCc1ccccn1	> 35.9 µM (inactive)
O=C(NCc1ccco1)c1nn(-c2ccccc2)c(=O)c2ccccc12	4.41 µM
O=C(OCC(=O)N1CCN(C(=O)COC(=O)c2ccc(O)cc2O)CC1)c1ccc(O)cc1O	1.37 µM
COc1ccc(NC(=O)COC(=O)c2cc(S(=O)(=O)N3CCCC3)ccc2O)cc1	> 35.9 µM (inactive)
COc1ccc(NC(=O)CN2C(=O)NC3(CCCC3)C2=O)cc1	> 35.9 µM (inactive)

Structure (SMILES)	IC50
COCC(=O)NC1CCN(CC(=O)Nc2ccc(OC)cc2[N+](=O)[O-])CC1	> 35.9 µM (inactive)
Cc1cc(Br)ccc1NC(=O)CN1C(=O)CCC1=O	1.06 µM
COC(=O)c1ccc(NC(=O)CSc2nncn2-c2cccnc2)cc1	> 35.9 µM (inactive)
O=C(CSc1nnc(CNC(=O)c2c(F)cccc2F)o1)Nc1ccc2c(c1)OCCO2	7.05 µM
O=C(COc1ccc2c3c(c(=O)oc2c1)CCC3)NCc1ccncc1	> 35.9 µM (inactive)
O=C(COC(=O)c1ccc[n+]([O-])c1)Nc1ccc([N+](=O)[O-])cc1Cl	7.19 µM
Cc1cccc(NC(=O)COC(=O)Cc2cccs2)c1C	> 35.9 µM (inactive)
Cc1ccc2cccc(OCC(=O)NCCC3=CCCCC3)c2n1	1.83 µM
O=C(CSc1nc(=O)n2cc(Cl)ccc2n1)Nc1ccc2c(c1)OCCO2	> 35.9 µM (inactive)
CCCN(CC(=O)Nc1ccc(C(C)=O)cc1)CC(=O)Nc1ccccc1C	inactive
O=C(COC(=O)c1ccc(Br)cc1)Nc1ccccc1Br	4.11 µM
COc1ccc(CC(NC(C)=O)C(=O)NC2CCN(c3nnnn3-c3ccccc3)CC2)cc1 (stereo not drawn)	0.779 µM
Cc1ccc(-c2csc(NC(=O)c3ccc([N+](=O)[O-])o3)n2)cc1	> 35.9 µM (inactive)
CCCc1cc(=O)oc2cc(OCC(=O)NCCc3ccc(S(N)(=O)=O)cc3)ccc12	> 35.9 µM (inactive)
Cc1cc(Br)ccc1NC(=O)CSc1nnc(CN2CCOCC2)n1C	7.86 µM
COc1ccc(NS(=O)(=O)c2ccc(OCC(=O)N3CCN(C)CC3)cc2)cc1Cl	5.3 µM
Cc1nn(CC(=O)Nc2ccc3c(c2)OCCO3)c(C)c1[N+](=O)[O-]	> 35.9 µM (inactive)
CCCc1nnc(SCC(=O)Nc2ccc(C(=O)OCC)cc2)o1	> 35.9 µM (inactive)
Cc1sc(NC(=O)C(C)C)c(C(=O)Nc2ccccc2)c1C	8.16 µM
Cc1cc(OCC(=O)Nc2nccs2)c2c(C)cc(=O)oc2c1	1.25 µM
CCOc1ccc(NC(=O)COC(=O)CC2CCCCC2)cc1	> 35.9 µM (inactive)
N#CCSc1ccccc1NC(=O)CN1C(=O)C2CC=CCC2C1=O (stereo not drawn)	inactive
O=c1[nH]c(Nc2ccc3c(c2)OCCO3)nnc1Cc1ccccc1	2.27 µM
O=C(CN1C(=O)CCC1=O)Nc1ccc(Br)cc1	2.25 µM
CC(C)CC1(C)NC(=O)N(CC(=O)Nc2ccc3c(c2)OCCO3)C1=O (stereo not drawn)	> 35.9 µM (inactive)
COc1ccc(CCNC(=O)COC(=O)c2cc(Cl)nc(Cl)c2)cc1	> 35.9 µM (inactive)

Structure (SMILES)	IC50
CC(=O)Nc1ccc(N=c2cc([N+](=O)[O-])cc(Cl)n2O)cc1	0.929 µM
COc1ccc(NC(=O)CSc2sc3c(O)cc(=O)[nH]c3c2C#N)c(OC)c1	inactive
O=C(NCC1CCCO1)c1ccc(NC(=O)c2cccc([N+](=O)[O-])c2)cc1 (stereo not drawn)	0.386 µM
O=C(Nc1ccccc1)c1oc2ccccc2c1NC(=O)C1CC1	9.07 µM
COc1ccc(CCNC(=O)CSc2nn3c(=O)c(C)nnc3s2)cc1OC	1.37 µM
O=C1CCCN2N=C(SCC(=O)Nc3ccc(Br)cc3)SC2=N1	> 35.9 µM (inactive)
CCCc1cc(=O)oc2c(C)c(OCC(=O)NCCCn3ccnc3)ccc12	> 35.9 µM (inactive)
CCCc1cc(=O)oc2c(C)c(OCC(=O)NCCN3CCOCC3)ccc12	> 35.9 µM (inactive)
COc1ccc(CCNC(=O)COC(=O)C23CC4CC(CC(C4)C2)C3)cc1	1.47 µM
CC(=O)c1ccc(OC(C)C(=O)OCC(=O)NCCc2ccccc2)cc1 (stereo not drawn)	> 35.9 µM (inactive)
CCn1c(SCC(=O)Nc2ccc(Cl)cc2)nnc1C1CC1	> 35.9 µM (inactive)
Cc1ccc(NC(=O)COC(=O)C(NS(=O)(=O)c2ccc(Cl)cc2)C(C)O)cc1C (stereo not drawn)	1.67 µM
NC(=O)C1CCN(C(=O)COc2ccc3c4c(c(=O)oc3c2)CCCC4)CC1	> 12 µM (inactive)
CCc1cc(=O)oc2c(C)c(OCC(=O)NCCN3CCOCC3)ccc12	> 35.9 µM (inactive)
CC1SC(C)C(=O)N(CC(=O)Nc2ccc3c(c2)OCO3)C1=O (stereo not drawn)	> 35.9 µM (inactive)
COc1ccc(CCNC(=O)COC(=O)c2cccn2C)cc1	> 35.9 µM (inactive)
Cc1ccc(NC(=O)COC(=O)c2cc(=O)c3ccccc3o2)c(Br)c1	> 35.9 µM (inactive)
COC(=O)c1ccc(NC(=O)COc2cccc(-n3cnnn3)c2)cc1	2.3 µM
CCOc1ccc(OCCC(=O)OCC(=O)Nc2ccc3c(c2)OCCO3)cc1	> 35.9 µM (inactive)
COC(=O)c1ccc(NC(=O)CSc2nc3ncccc3[nH]2)cc1	> 35.9 µM (inactive)
Cc1ccc(NC(=O)CSc2sc3c(O)cc(=O)[nH]c3c2C#N)c(F)c1	> 35.9 µM (inactive)
CCOc1ccc(NC(=O)CSc2nc3[nH]ncc3c(=O)[nH]2)cc1	1.13 µM
O=C(CSc1nnc(CNC(=O)c2ccccc2F)o1)Nc1ccc2c(c1)OCCO2	0.732 µM
COc1ccccc1Oc1nnnn1-c1ccc(C(N)=O)cc1	9.86 µM
Cc1ccc(NC(=O)COC(=O)C(NS(=O)(=O)c2ccc(Cl)cc2)C(C)O)c(Br)c1 (stereo not drawn)	> 35.9 µM (inactive)
O=C(COC(=O)CCN1C(=O)C2CC=CCC2C1=O)NCCc1ccc(F)cc1 (stereo not drawn)	> 35.9 µM (inactive)
